Assays:
aortic lesions = conditions: cited from earlier work
LDL [1] = conditions: rabbit, in vivo; cited from earlier work
[2] = test system: aortic foam cell atherosclerosis lesion; test: In vivo atherosclerosis model in hamsters: aortic foam cell lesion size after 10 weeks; conditions: hamster; for aortic lesion size: oral in diet, mean ± SEM, n=12
Method: Atherosclerosis in hamsters is confined initially to a lesion prone area along the inner curvature of the aortic arch. Early atherogenesis in this region is characterized by the infiltration of monocytes which become lipid-filled macrophage foam cells, which can develop into complex fibrous atheromas. Antioxidants selected from primary and secondary in vitro screens and ex vivo assays were tested for their ability to inhibit macrophage foam cell lesion formation in hamsters in 10 weeks studies. Lesion size was assayed by video microscopy/image analysis of histological specimens of the aortic arch stained with the lipophilic dye, oil red O. Hamsters were maintained on a diet deficient in vitamins E, C, and K/menadione, selenium, and carotenoids, and supplemented with vitamin E-stripped corn oil (10%) and cholesterol (0.4%). This diet amplified oxidant stress while only moderately elevating plasma cholesterol and LDL levels. Test compounds were administered in this diet fed ad libitum for 10 weeks. The dosages are given as mg/kg/day based on food consumption measurements and weight of the animals at the end of the 10 week dosing period. […] Results are given in Table 4; a decrease in lesion size relative to control indicates an effective anti-atherosclerotic agent.

arterial lesion = conditions: animal models of atherosclerosis, high doses; cited from earlier work
LDL [3] = test: Ex vivo LDL oxidation susceptibility assay in hamsters after 2 weeks oral administration; conditions: hamster; for ex vivo LDL oxidation initial rate / ex vivo LDL oxidation lag time: oral in diet, mean of 4 to 6 hamsters
Excerpt: (§1) The initial and later stages of LDL oxidation can be distinguished kinetically in vitro by measuring the formation of lipid conjugated diene oxidation products (ref. 10). By analogy to the behavior of antioxidants in simple single-phase systems (ref. 11), in vitro test systems were established to quantitate the protective effects of pure chemical compounds on Cu^++ -dependent LDL oxidation initial rate and lag phase. Both in vitro and ex vivo methods were employed to incorporate compounds into LDL. The magnitude of the decrease in the initial rate of conjugated diene formation was used as an estimate of the intrinsic LDL antioxidant potency of the test compound. The magnitude of the increase in lag time for the propagation phase of the oxidation chain reaction was used as an estimate of the effective concentration within LDL of the test compound. By this approach, quantitative estimation of the LDL antioxidant activity of compounds was used to identify chain-terminating antioxidants appropriate for testing in an in vivo atherosclerosis animal model.
(§2) A plasma incorporation technique was used in this procedure to test for the partitioning of a compound into LDL and its retention during LDL isolation by ultracentrifugation and dialysis. The antioxidant activity remaining in LDL was then assayed by measuring the initial rate of Cu^++ -dependent conjugated diene formation, and the lag time before extensive formation of conjugated diene oxidation products. Incorporation of test compounds into LDL in vitro was achieved by addition of an aliquot of compound (final concentration 25 μM) in DMSO to aliquots of pooled human plasma previously dialyzed overnight in buffer 1 (10 mM HEPES, 150 mM NaCl, pH 7.2) and adjusted to d=1.019 with solid KBr, and incubating for 60 min at 37°. LDL was then isolated from plasma as the ([…] to d=1.063 g/ml) fraction by standard sequential flotation techniques using KBr solution discontinuous density gradients in an ultracentrifuge by a method adapted from the original procedure of Havel (J. Clin. Invest. 34:1345). The isolated LDL was dialyzed for 1 hour into buffer 1, and aliquots were added to cuvettes at 100 μg protein/ml in buffer 1. Oxidation reactions were initiated with CuSO4 (2.5 μM) at 20°. The LDL initial oxidation rate and lag time were measured by continuous monitoring of absorbance at 234 nm in a Beckman DU-7500 spectrophotometer. The initial oxidation rate was calculated as the slope of the linear regression curve of A234 vs. time over the first ~60 min. Percent of control was calculated for test compound vs. DMSO vehicle controls. Lag time was calculated as the time corresponding to the maximum value of the first derivative of the A234 vs. time curve. The value of the lag time from the A234 vs. time curve for test compounds compared to vehicle control was expressed as percent of control. Results are given in Table 2; a decrease vs. control in the initial rate, and an increase vs. control in the lag time, reflect an active antioxidant.
Compounds were administered orally to hamsters for 2 weeks using the same diet described for the atherosclerosis studies (part D.) At 2 weeks, hamsters were fasted overnight, blood was collected, and LDL was isolated as described above (part B). The same assay methods described above (part B.) were then used to obtain ex vivo LDL oxidation initial rate and lag time values. Results are given in Table 3; a decrease vs. control in the initial rate, and an increase in the lag time, reflect an active antioxidant.

human LDL [4] = test: Primary in vitro screen: inhibition of initial rate of Cu++-dependent LDL lipid oxidation, compound directly added to LDL; type: biochemical; conditions: CuSO4 10 μM, 37°, 90 min
Excerpt: as §1
This procedure determined the ability of test compounds added directly to LDL to inhibit the initial rate of LDL lipid oxidation monitored by conjugated diene content. The initial rate of conjugated diene formation was approximately linear with respect to time for approximately 2 hours under the conditions employed, prior to the end of the lag phase characterized by rapid propagation of the radical chain reaction and a corresponding large increase in conjugated diene content of the LDL sample. In the assay, aliquots of compounds dissolved in DMSO (and DMSO vehicle controls) were directly added to isolated human LDL (600 μg protein/mL) in Buffer 1 (10 mM HEPES, 150 mM NaCl, pH 7.2), and incubated at 37° for 60 min. Duplicate samples were then subjected to controlled oxidation by addition of CuSO4 (10 μM) and incubation at 37° for 0 or 90 min. The reaction was quenched by diluting with 5 volumes of buffer 1 plus EDTA (20 μM final) at 0° -4°. The conjugated diene levels in the LDL samples, a quantitative indicator of lipid peroxidation rate and extent, was determined spectrophotometrically by absorbance at 234 nm for each sample at 0 min and at 90 min time points of the CuSO4 incubation. […] Results are given in Table 1; a decrease vs. control reflects an active antioxidant.

LDL [5] = conditions: animal models of atherosclerosis, high doses; cited from earlier work
human LDL [6] = test: Secondary in vitro screen: LDL oxidation initial rate and lag time after in vitro plasma incorporation of compound into LDL; type: biochemical; conditions: 25 μM in plasma incorporation; CuSO4 2.5 μM, 20°
Excerpt: as §1, §2

| Structure (SMILES) | aortic lesions in rabbits (aortic lesions) | protection of LDL from oxidation (LDL [1]) | LDL oxidation initial rate (human LDL [4]; 1.0 μM) | LDL oxidation initial rate (human LDL [6]) | LDL oxidation lag time (human LDL [6]) | ex vivo LDL oxidation initial rate (LDL [3]; 60 mg/kg/day) | ex vivo LDL oxidation lag time (LDL [3]; 60 mg/kg/day) | further results |
| --- | --- | --- | --- | --- | --- | --- | --- | --- |
| Cc1cc(C(C)(C)C)c(O)c(C(C)(C)C)c1 [butylated hydroxytoluene (BHT), butylated hydroxytoluene] | decrease aortic lesions in rabbits | protect LDL from oxidation | – | – | – | – | – | – |
| CC(C)(Sc1cc(C(C)(C)C)c(O)c(C(C)(C)C)c1)Sc1cc(C(C)(C)C)c(O)c(C(C)(C)C)c1 [probucol] | – | – | 79 % of control | 17.6 % of control | 293 % of control | – | – | aortic lesion size ([2]; 120 mg/kg/day): 59.4 ± 6.4 % of control; arterial lesion size (arterial lesion): decreased arterial lesion size; ex vivo LDL oxidation initial rate (LDL [3]; 120 mg/kg/day): 70 % of control; ex vivo LDL oxidation lag time (LDL [3]; 120 mg/kg/day): 141 % of control; oxidation of LDL in vivo (LDL [5]): decrease oxidation of LDL in vivo |
| c1ccc(Nc2ccc(Nc3ccccc3)cc2)cc1 [N,N'-diphenylphenylenediamine (DPPD), N,N'-diphenylphenylenediamine] | decrease aortic lesions in rabbits | protect LDL from oxidation | – | – | – | – | – | – |
| COc1ccc(O)c(C(C)(C)C)c1 [BHA, butylated hydroxyanisole] | – | – | 16 % of control | 11.0 % of control | 239 % of control | 77 % of control | 116 % of control | – |
| CN(C)c1cc(-c2ccccc2)ccc1O [Example 1, 3-(Dimethylamino)[1,1'-biphenyl]-4-ol] | – | – | 42.2 % of control | 17.9 % of control | 237 % of control | 17 % of control | 482 % of control | anti-atherosclerotic effectiveness relative to probucol ([2]; oral): markedly more effective than the reference agent probucol; aortic lesion size ([2]; 3 mg/kg/day): 71.7 ± 13.7 % of control; aortic lesion size ([2]; 60 mg/kg/day): 46.2 ± 6.2 % of control; ex vivo LDL antioxidant activity relative to probucol and BHA (LDL [3]; oral): markedly more active in this model than the reference agents probucol and BHA; LDL oxidation initial rate (human LDL [4]; 0.30 μM): 66.2 % of control; LDL oxidation initial rate (human LDL [4]; 3.0 μM): 34.0 % of control; LDL oxidation initial rate (human LDL [4]; 10 μM): 1.7 % of control |
